# Tested on: GBM8 cells (human glioblastoma neurosphere cell culture)
# Experiment: GBM8 viability assay (Cell Titer Glo luminescence, 3 days)
# Type: cell-based
# Details: 72 h, 3 days incubation
# Procedure: Example 283: GBM4 and GBM8 Viability Assay
# Cell culture medium was prepared from a NSA proliferation kit (Neurocult) and NeuroCult supplements (Stemcell Tech Cat. #05751) and treated with 20 μL of 10 μg/mL rh EGF, 10 μL of 10 μg/mL rh bFGF and 10 μL of 0.2% Heparin. In this medium, human glioblastoma cells were cultured in ultra-low attachment tissue culture flasks until 1×10^6 cells ml was achieved (GBM4 and GBM8 are distinct neurosphere cell cultures derived from these human patient tissues). GBM4 and GBM8 cells were dissociated and 10 mL of media containing 4000 human glioblastoma cells per 90 uL were transferred to an ultra-low binding 96-well plate and incubated at 37° C. overnight. On the following day, 10 μL of a 1% DMSO solution of test compound in assay medium was added to wells containing the cell suspension and the mixture incubated at 37° C. for 3 days. At this time, the plate was removed from the incubator and allowed to reach room temperature. After about 30 minutes, 50 μL of Cell Titer Glo solution was added to each well and the plate shaken for 1 minute at low speed. After 10 minutes luminescence was recorded using a Tecan Safire2 reader.
# Reduction in luminescence compared to DMSO only control wells was used to determine the percentage inhibition of cell growth. IC50s were calculated using the % inhibition of luminescence for serial dilutions of compounds fitted to a 4-parameter fit within the Prism (San Diego) curve fitting program.
row,SMILES,IC50
1,Cc1cc(NCC(C)O)nc(NC(=O)Nc2ccc(OC(F)(F)F)cc2)n1 (stereo not drawn) [Compound 95],< 1000 nM
2,Cc1cc(NCC(O)CO)nc(NC(=O)Nc2ccc(OC(F)(F)F)cc2)n1 (stereo not drawn) [Compound 96],< 1000 nM
3,"CNCCNc1cc(C)nc(NC(=O)Nc2ccc(OC(F)(F)F)cc2)n1 [Compound 98, 1-(4-methyl-6-((2-(methylamino)ethyl)amino)pyrimidin-2-yl)-3-(4-(trifluoromethoxy)phenyl)urea]",< 1000 nM
4,"CNCCCNc1cc(C)nc(NC(=O)Nc2ccc(OC(F)(F)F)cc2)n1 [Compound 99, 1-[4-Methyl-6-(3-methylamino-propylamino)-pyrimidin-2-yl]-3-(4-trifluoromethoxy-phenyl)-urea]",< 1000 nM
5,"Cc1cc(NCCCN(C)C)nc(NC(=O)Nc2ccc(F)c(C(F)(F)F)c2)n1 [Compound 101, 3-(dimethylamino)-1-(2-{3-[4-fluoro-3-(trifluoromethyl)phenyl]ureido}-6-methyl-4-pyrimidinylamino)propane]",< 1000 nM
6,"Cc1cc(NCCCO)nc(NC(=O)Nc2ccc(F)c(C(F)(F)F)c2)n1 [Compound 102, 1-(4-fluoro-3-(trifluoromethyl)phenyl)-3-(4-((3-hydroxypropyl)amino)-6-methylpyrimidin-2-yl)urea]",< 1000 nM
7,"Cc1cc(NCCN(C)C)nc(NC(=O)Nc2ccc(F)c(C(F)(F)F)c2)n1 [Compound 103, 1-(4-fluoro-3-(trifluoromethyl)phenyl)-3-(4-((2-(dimethylamino)ethyl)amino)-6-methylpyrimidin-2-yl)urea]",< 1000 nM
8,Cc1cc(NCCCCN(C)C)nc(NC(=O)Nc2ccc(F)c(C(F)(F)F)c2)n1 [Compound 104],< 1000 nM
9,Cc1cc(NCCO)nc(NC(=O)Nc2ccc(F)c(C(F)(F)F)c2)n1 [Compound 105],< 1000 nM
10,Cc1cc(NCCCCO)nc(NC(=O)Nc2ccc(F)c(C(F)(F)F)c2)n1 [Compound 106],< 1000 nM
11,Cc1cc(NCCOCCO)nc(NC(=O)Nc2ccc(F)c(C(F)(F)F)c2)n1 [Compound 107],< 1000 nM
12,Cc1cc(NCC(O)CO)nc(NC(=O)Nc2ccc(F)c(C(F)(F)F)c2)n1 (stereo not drawn) [Compound 108],< 1000 nM
13,Cc1cc(NCCN)nc(NC(=O)Nc2ccc(F)c(C(F)(F)F)c2)n1 [Compound 110],< 1000 nM
14,Cc1cc(NCCCN)nc(NC(=O)Nc2ccc(F)c(C(F)(F)F)c2)n1 [Compound 111],< 1000 nM
15,Cc1cc(NCCCCN)nc(NC(=O)Nc2ccc(F)c(C(F)(F)F)c2)n1 [Compound 112],< 1000 nM
16,CNCCCN(C)c1cc(C)nc(NC(=O)Nc2ccc(F)c(C(F)(F)F)c2)n1 [Compound 113],1000 to 10000 nM
17,Cc1cc(NCCC(N)=O)nc(NC(=O)Nc2ccc(F)c(C(F)(F)F)c2)n1 [Compound 116],< 1000 nM
18,CCNc1cc(C)nc(NC(=O)Nc2ccc(F)c(C(F)(F)F)c2)n1 [Compound 117],< 1000 nM
19,"CNCCNc1cc(C)nc(NC(=O)Nc2ccc(F)c(C(F)(F)F)c2)n1 [Compound 120, 1-(4-fluoro-3-(trifluoromethyl)phenyl)-3-(4-methyl-6-((2-(methylamino)ethyl)amino)pyrimidin-2-yl)urea]",< 1000 nM
20,CNCCCNc1cc(C)nc(NC(=O)Nc2ccc(F)c(C(F)(F)F)c2)n1 [Compound 121],< 1000 nM
21,Cc1cc(NCC2CCCNC2)nc(NC(=O)Nc2ccc(F)c(C(F)(F)F)c2)n1 (stereo not drawn) [Compound 122],< 1000 nM
22,Cc1cc(NC2CCNC2)nc(NC(=O)Nc2ccc(F)c(C(F)(F)F)c2)n1 (stereo not drawn) [Compound 123],< 1000 nM
23,COc1ccc(NC(=O)Nc2nc(C)cc(NCC(C)O)n2)cc1 (stereo not drawn) [Compound 133],< 1000 nM
24,Cc1cc(NCCN(C)C)nc(NC(=O)Nc2ccc(F)c(Cl)c2)n1 [Compound 159],1000 to 10000 nM
25,Cc1cc(NCCO)nc(NC(=O)Nc2ccc(F)c(Cl)c2)n1 [Compound 161],< 1000 nM
26,Cc1cc(NCCN)nc(NC(=O)Nc2ccc(F)c(Cl)c2)n1 [Compound 162],< 1000 nM
27,Cc1cc(NCC(C)O)nc(NC(=O)Nc2ccc(F)c(Cl)c2)n1 (stereo not drawn) [Compound 164],< 1000 nM
28,Cc1cc(NCCOCCO)nc(NC(=O)Nc2ccc(F)c(Cl)c2)n1 [Compound 166],< 1000 nM
29,"CNCCNc1cc(C)nc(NC(=O)Nc2ccc(F)c(Cl)c2)n1 [Compound 169, 1-(3-chloro-4-fluorophenyl)-3-(4-methyl-6-((2-(methylamino)ethyl)amino)pyrimidin-2-yl)urea]",< 1000 nM

# Now from value to compound:
row,IC50,SMILES
1,< 1000 nM,Cc1cc(NCCCc2cnc[nH]2)nc(NC(=O)Nc2ccc(F)c(C(F)(F)F)c2)n1 [Compound 115]
2,< 1000 nM,COc1ccc(NC(=O)Nc2nc(C)cc(NCCCN(C)C)n2)cc1 [Compound 125]
3,< 1000 nM,COc1ccc(NC(=O)Nc2nc(C)cc(NCCCCO)n2)cc1 [Compound 126]
4,< 1000 nM,COc1ccc(NC(=O)Nc2nc(C)cc(NCCN)n2)cc1 [Compound 127]
5,< 1000 nM,CCCNc1cc(C)nc(NC(=O)Nc2ccc(OC)cc2)n1 [Compound 128]
6,< 1000 nM,CCCCNc1cc(C)nc(NC(=O)Nc2ccc(OC)cc2)n1 [Compound 129]
7,< 1000 nM,COc1ccc(NC(=O)Nc2nc(C)cc(NCCO)n2)cc1 [Compound 130]
8,< 1000 nM,COc1ccc(NC(=O)Nc2nc(C)cc(NCCCN)n2)cc1 [Compound 131]
9,< 1000 nM,COc1ccc(NC(=O)Nc2nc(C)cc(NCCOCCO)n2)cc1 [Compound 132]
10,1000 to 10000 nM,COc1ccc(NC(=O)Nc2nc(C)cc(NCCc3ccccn3)n2)cc1 [Compound 134]
11,< 1000 nM,COc1ccc(NC(=O)Nc2nc(C)cc(NCC(O)CO)n2)cc1 (stereo not drawn) [Compound 135]
12,< 1000 nM,COc1ccc(NC(=O)Nc2nc(C)cc(NCCCCN)n2)cc1 [Compound 137]
13,< 1000 nM,COc1ccc(NC(=O)Nc2nc(C)cc(NCCN(C)C)n2)cc1 [Compound 138]
14,< 1000 nM,CCNc1cc(C)nc(NC(=O)Nc2ccc(OC)cc2)n1 [Compound 139]
15,1000 to 10000 nM,COc1cccc(NC(=O)Nc2nc(C)cc(NCCCN(C)C)n2)c1 [Compound 141]
16,1000 to 10000 nM,COc1cccc(NC(=O)Nc2nc(C)cc(NCCCCN)n2)c1 [Compound 142]
17,1000 to 10000 nM,COc1cccc(NC(=O)Nc2nc(C)cc(NCCCN)n2)c1 [Compound 143]
18,1000 to 10000 nM,COc1cccc(NC(=O)Nc2nc(C)cc(NCCN)n2)c1 [Compound 144]
19,1000 to 10000 nM,COc1cccc(NC(=O)Nc2nc(C)cc(NCCN(C)C)n2)c1 [Compound 145]
20,1000 to 10000 nM,COc1cccc(NC(=O)Nc2nc(C)cc(NCCCCO)n2)c1 [Compound 146]

row,IC50,SMILES
1,1000 to 10000 nM,COc1cccc(NC(=O)Nc2nc(C)cc(NCC(C)O)n2)c1 (stereo not drawn) [Compound 147]
2,1000 to 10000 nM,COc1cccc(NC(=O)Nc2nc(C)cc(NCCCCN(C)C)n2)c1 [Compound 148]
3,1000 to 10000 nM,COc1cccc(NC(=O)Nc2nc(C)cc(NCCCc3ncc[nH]3)n2)c1 [Compound 149]
4,1000 to 10000 nM,COc1cccc(NC(=O)Nc2nc(C)cc(NCC(O)CO)n2)c1 (stereo not drawn) [Compound 151]
5,1000 to 10000 nM,"CNCCNc1cc(C)nc(NC(=O)Nc2cccc(OC)c2)n1 [Compound 153, 1-(3-methoxyphenyl)-3-(4-methyl-6-((2-(methylamino)ethyl)amino)pyrimidin-2-yl)urea]"
6,1000 to 10000 nM,CNCCCCNc1cc(C)nc(NC(=O)Nc2cccc(OC)c2)n1 [Compound 154]
7,1000 to 10000 nM,COc1cccc(NC(=O)Nc2nc(C)cc(NCC3CCCNC3)n2)c1 (stereo not drawn) [Compound 155]
8,< 1000 nM,"Cc1cc(NCCCN(C)C)nc(NC(=O)Nc2ccc(F)c(Cl)c2)n1 [Compound 157, 1-(3-chloro-4-fluorophenyl)-3-(4-((3-(dimethylamino)propyl)amino)-6-methylpyrimidin-2-yl)urea]"
9,< 1000 nM,"Cc1cc(NCCCN)nc(NC(=O)Nc2ccc(F)c(Cl)c2)n1 [Compound 158, 1-(4-((3-aminopropyl)amino)-6-methylpyrimidin-2-yl)-3-(3-chloro-4-fluorophenyl)urea]"
10,< 1000 nM,Cc1cc(NCCCCN)nc(NC(=O)Nc2ccc(F)c(Cl)c2)n1 [Compound 160]
11,< 1000 nM,Cc1cc(NCCCCO)nc(NC(=O)Nc2ccc(F)c(Cl)c2)n1 [Compound 163]
12,< 1000 nM,CCCNc1cc(C)nc(NC(=O)Nc2ccc(F)c(Cl)c2)n1 [Compound 165]
13,1000 to 10000 nM,COC(=O)CCNc1cc(C)nc(NC(=O)Nc2ccc(F)c(Cl)c2)n1 [Compound 167]
14,< 1000 nM,CNCCCNc1cc(C)nc(NC(=O)Nc2ccc(F)c(Cl)c2)n1 [Compound 170]
15,< 1000 nM,"Cc1cc(NCCCN(C)C)nc(NC(=O)Nc2cccc(OC(F)(F)F)c2)n1 [Compound 172, 1-(4-((3-(dimethylamino)propyl)amino)-6-methylpyrimidin-2-yl)-3-(3-(trifluoromethoxy)phenyl)urea]"
16,< 1000 nM,Cc1cc(NCCCCN)nc(NC(=O)Nc2cccc(OC(F)(F)F)c2)n1 [Compound 173]
17,1000 to 10000 nM,Cc1cc(NCCN(C)C)nc(NC(=O)Nc2cccc(OC(F)(F)F)c2)n1 [Compound 174]
18,< 1000 nM,Cc1cc(NCCCCO)nc(NC(=O)Nc2cccc(OC(F)(F)F)c2)n1 [Compound 175]
19,< 1000 nM,Cc1cc(NCCO)nc(NC(=O)Nc2cccc(OC(F)(F)F)c2)n1 [Compound 176]
20,< 1000 nM,Cc1cc(NCCCN)nc(NC(=O)Nc2cccc(OC(F)(F)F)c2)n1 [Compound 177]
